# From patent publication US8802663B2, “Pyrazole oxadiazole derivatives as S1P1 agonists” (Merck Serono SA, priority 2009, dated 2014)
# pEC50: −log10 of the molar value.
# Biological target: S1P1 (Homo sapiens (Human), UniProt P21453)
# Experiment: 35S-GTPγS binding, membranes from CHO cells expressing S1P1
# Type: biochemical
# Conditions: CHO cell membranes
# Protocol: Cells were suspended in 50 mM TRIS, pH 7.4, 2 mM EDTA, 250 mM Sucrose (buffer A) and 1× Complete protease inhibitor cocktail (Roche), and disrupted at 4° C. by N2 decompression using a cell disruption bomb (Parr Instrument). Following centrifugation at 1000 RPM for 10 min at 4° C., the supernatant was suspended in buffer A and centrifuged again at 19000 RPM for 60 min at 4° C. The pellet was then suspended in 10 mM HEPES, pH 7.4, 1 mM EDTA, 250 mM Sucrose (Buffer B), and 1× Complete EDTA-free protease inhibitor cocktail and homogenized using a potter. Membranes were flash frozen in liquid N2 and stored at −80° C. [33P]sphingosine 1-phosphate (3000 Ci/mmol; American Radiolabeled Chemicals, Inc.) was added to test compounds in DMSO. […] Specific binding was calculated by subtracting remaining radioactivity in the presence of 1000-fold excess of unlabeled SIP. Binding data were analyzed using the GraphPad Prism program.
# After 60 min incubation at 30° C. on a shaker, plates were centrifuged for 10 min at 2000 RPM. […] Triplicate samples were averaged and expressed as % response relative to S1P activation in absence of compound (n=2).
# S1P1, sequence (P21453 whole entry, species assumed): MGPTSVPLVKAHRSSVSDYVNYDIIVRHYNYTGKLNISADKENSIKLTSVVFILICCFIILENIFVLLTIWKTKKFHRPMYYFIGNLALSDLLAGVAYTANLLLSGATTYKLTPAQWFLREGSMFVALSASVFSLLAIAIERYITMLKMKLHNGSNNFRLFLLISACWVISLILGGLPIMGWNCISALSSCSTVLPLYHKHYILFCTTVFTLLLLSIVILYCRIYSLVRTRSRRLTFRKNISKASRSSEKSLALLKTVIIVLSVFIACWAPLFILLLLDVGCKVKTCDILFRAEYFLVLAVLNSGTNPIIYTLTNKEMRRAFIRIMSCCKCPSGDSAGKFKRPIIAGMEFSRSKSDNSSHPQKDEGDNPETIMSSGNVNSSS
row,pEC50,SMILES
1,7.62,"Fc1ccc(F)c(-c2noc(-c3cnn(-c4ccccc4F)c3-c3ccccc3)n2)c1 [Example 2, 3-(2,5-difluorophenyl)-5-[1-(2-fluorophenyl)-5-phenyl-1H-pyrazol-4-yl]-1,2,4-oxadiazole]"
2,6.55,"COc1ccccc1-n1ncc(-c2nc(-c3cc(F)ccc3F)no2)c1-c1ccccc1 [Example 4, 3-(2,5-difluorophenyl)-5-[1-(2-methoxyphenyl)-5-phenyl-1H-pyrazol-4-yl]-1,2,4-oxadiazole]"
3,6.54,"CC(C)Cn1cc(-c2nc(-c3cc(F)ccc3F)no2)c(-c2ccccc2)n1 [Example 7, 3-(2,5-difluorophenyl)-5-(1-isobutyl-3-phenyl-1H-pyrazol-4-yl)-1,2,4-oxadiazole]"
4,6.70,"CCCn1ncc(-c2nc(-c3cc(F)ccc3F)no2)c1-c1ccccc1 [Example 14, 3-(2,5-difluorophenyl)-5-(5-phenyl-1-propyl-1H-pyrazol-4-yl)-1,2,4-oxadiazole]"
5,6.72,"Cc1c(-c2nc(-c3cc(F)ccc3F)no2)cnn1-c1ccccc1 [Example 15, 3-(2,5-difluorophenyl)-5-(5-methyl-1-phenyl-1H-pyrazol-4-yl)-1,2,4-oxadiazole]"
6,6.05,"Cn1cc(-c2nc(-c3cc(F)ccc3F)no2)c(C(C)(C)C)n1 [Example 16, 5-(3-tert-butyl-1-methyl-1H-pyrazol-4-yl)-3-(2,5-difluorophenyl)-1,2,4-oxadiazole]"
7,6.19,"COCc1c(-c2nc(-c3cc(F)ccc3F)no2)cnn1CC(C)C [Example 17, 3-(2,5-difluorophenyl)-5-(1-isobutyl-5-(methoxymethyl)-1H-pyrazol-4-yl)-1,2,4-oxadiazole]"
8,6.76,"CCOC(=O)Cn1ncc(-c2nc(-c3cc(F)ccc3F)no2)c1-c1ccncc1 [Example 20, ethyl {4-[3-(2,5-difluorophenyl)-1,2,4-oxadiazol-5-yl]-5-pyridin-4-yl-1H-pyrazol-1-yl}acetate]"
9,6.43,CCCc1c(-c2nc(-c3cccc(S(C)(=O)=O)c3)no2)cnn1-c1ccccc1 [Example 22]
10,6.53,"Fc1ccc(F)c(-c2noc(-c3cnn(CC(F)(F)F)c3-c3ccncc3)n2)c1 [Example 24, 3-(2,5-difluorophenyl)-5-(5-(pyridin-4-yl)-1-(2,2,2-trifluoroethyl)-1H-pyrazol-4-yl)-1,2,4-oxadiazole]"
11,7.57,"COCc1c(-c2nc(-c3cc(F)ccc3F)no2)cnn1C1CCCCC1 [Example 27, 5-[1-cyclohexyl-5-(methoxymethyl)-1H-pyrazol-4-yl]-3-(2,5-difluorophenyl)-1,2,4-oxadiazole]"
12,7.62,"OCc1ccc(-c2noc(-c3cnn(C4CCCCC4)c3-c3ccncc3)n2)cc1 [Example 29, {4-[5(1-cyclohexyl-5-pyridin-4-yl-1H-pyrazol-4-yl)-1,2,4-oxadiazol-3-yl]phenyl}methanol]"
13,6.74,"CC(C)Cn1ncc(-c2nc(-c3cc(F)ccc3F)no2)c1C1CCOCC1 [Example 32, 3-(2,5-difluorophenyl)-5-[1-isobutyl-5-(tetrahydro-2H-pyran-4-yl)-1H-pyrazol-4-yl]-1,2,4-oxadiazole]"
14,6.53,"CC(C)Cn1ncc(-c2nc(-c3cccc(S(C)(=O)=O)c3)no2)c1-c1ccncc1 [Example 43, 4-(1-isobutyl-4-{3-[3-(methylsulfonyl)phenyl]-1,2,4-oxadiazol-5-yl}-1H-pyrazol-5-yl)pyridine]"
15,7.59,"C[C@H]1CCCC[C@@H]1n1ncc(-c2nc(-c3cc(F)ccc3F)no2)c1-c1ccccc1 [Example 46, 3-(2,5-difluorophenyl)-5-{1-[(1S,2S)-2-methylcyclohexyl]-5-phenyl-1H-pyrazol-4-yl}-1,2,4-oxadiazole]"
16,6.64,"COCc1c(-c2nc(-c3ccc(CO)cc3)no2)cnn1C1CCCCC1 [Example 49, (4-{5-[1-cyclohexyl-5-(methoxymethyl)-1H-pyrazol-4-yl]-1,2,4-oxadiazol-3-yl}phenyl)methanol]"
17,6.68,"CC(C)Cn1ncc(-c2nc(-c3cccc(C(F)(F)F)c3)no2)c1C1CCOCC1 [Example 50, 5-[1-isobutyl-5-(tetrahydro-2H-pyran-4-yl)-1H-pyrazol-4-yl]-3-[3-(trifluoromethyl)phenyl]-1,2,4-oxadiazole]"
18,6.50,"Fc1ccccc1-c1nc(-c2cnn(C3CCCCC3)c2-c2ccccc2)no1 [Example 52, 3-(1-cyclohexyl-5-phenyl-1H-pyrazol-4-yl)-5-(2-fluorophenyl)-1,2,4-oxadiazole]"
19,6.79,"c1ccc(-c2c(-c3noc(-c4cccnc4)n3)cnn2C2CCCCC2)cc1 [Example 53, 3-[3-(1-cyclohexyl-5-phenyl-1H-pyrazol-4-yl)-1,2,4-oxadiazol-5-yl]pyridine]"
20,6.72,"CC(C)Cn1ncc(-c2nc(-c3ccc(CO)cc3)no2)c1-c1ccncc1 [Example 54, {4-[5-(1-isobutyl-5-pyridin-4-yl-1H-pyrazol-4-yl)-1,2,4-oxadiazol-3-yl]phenyl}methanol]"
21,7.62,"CNCc1ccc(-c2noc(-c3cnn(C4CCCCC4)c3-c3ccncc3)n2)cc1 [Example 55, 1-{4-[5-(1-cyclohexyl-5-pyridin-4-yl-1H-pyrazol-4-yl)-1,2,4-oxadiazol-3-yl]phenyl}-N-methylmethanamine]"
22,7.31,"Fc1ccc(F)c(-c2nc(-c3cnn(C4CCCCC4)c3-c3ccccc3)no2)c1 [Example 57, 3-(1-cyclohexyl-5-phenyl-1H-pyrazol-4-yl)-5-(2,5-difluorophenyl)-1,2,4-oxadiazole]"

# Second part, the molecule before the results:
row,SMILES,pEC50
1,"CC(C)n1ncc(-c2nc(-c3cc(F)ccc3F)no2)c1-c1ccccc1 [Example 10, 3-(2,5-difluorophenyl)-5-(1-isopropyl-5-phenyl-1H-pyrazol-4-yl)-1,2,4-oxadiazole]",6.76
2,"CCc1c(-c2nc(-c3cc(F)ccc3F)no2)cnn1CC(C)C [Example 18, 3-(2,5-difluorophenyl)-5-(5-ethyl-1-isobutyl-1H-pyrazol-4-yl)-1,2,4-oxadiazole]",6.11
3,"CCCc1c(-c2nc(-c3cc(F)ccc3F)no2)cnn1-c1ccccc1 [Example 21, 3-(2,5-difluorophenyl)-5-(1-phenyl-5-propyl-1H-pyrazol-4-yl)-1,2,4-oxadiazole]",7.09
4,"Fc1ccc(F)c(-c2noc(-c3cnn(Cc4ccccc4)c3-c3ccncc3)n2)c1 [Example 25, 4-{1-benzyl-4-[3-(2,5-difluorophenyl)-1,2,4-oxadiazol-5-yl]-1H-pyrazol-5-yl}pyridine]",6.83
5,"CS(=O)(=O)c1cccc(-c2noc(-c3cnn(C4CCCCC4)c3-c3ccncc3)n2)c1 [Example 26, 4-(1-cyclohexyl-4-{3-[3-(methylsulfonyl)phenyl]-1,2,4-oxadiazol-5-yl}-1H-pyrazol-5-yl)pyridine]",7.54
6,"Fc1ccc(F)c(-c2noc(-c3cnn(C4CCCC4)c3-c3ccncc3)n2)c1 [Example 30, 4-{1-cyclopentyl-4-[3-(2,5-difluorophenyl)-1,2,4-oxadiazol-5-yl]-1H-pyrazol-5-yl}Pyridine]",7.70
7,"Fc1ccc(F)c(-c2noc(-c3cnn(C4CCOCC4)c3-c3ccccc3)n2)c1 [Example 33, 3-(2,5-difluorophenyl)-5-[5-phenyl-1-(tetrahydro-2H-pyran-4-yl)-1H-pyrazol-4-yl]-1,2,4-oxadiazole]",6.67
8,"Fc1ccc(F)c(-c2noc(-c3cnn(CCNC4CC4)c3-c3ccccc3)n2)c1 [Example 35, N-(2-{4-[3-(2,5-difluorophenyl)-1,2,4-oxadiazol-5-yl]-5-phenyl-1H-pyrazol-1-yl}ethyl)cyclopropanamine]",6.03
9,"CC(C)Cn1ncc(-c2nc(-c3ccc4c(c3)CNCC4)no2)c1-c1ccncc1 [Example 36, 7-[5-(1-isobutyl-5-pyridin-4-yl-1H-pyrazol-4-yl)-1,2,4-oxadiazol-3-yl]-1,2,3,4-tetrahydroisoquinoline]",6.94
10,"c1cc(-c2c(-c3nc(-c4ccc5c(c4)CNCC5)no3)cnn2C2CCCCC2)ccn1 [Example 39, 7-[5-(1-cyclohexyl-5-pyridin-4-yl-1H-pyrazol-4-yl)-1,2,4-oxadiazol-3-yl]-1,2,3,4-tetrahydroisoquinoline]",7.80
11,"Fc1ccc(F)c(-c2noc(-c3cnn(C4CCC4)c3-c3ccncc3)n2)c1 [Example 44, 4-{1-cyclobutyl-4-[3-(2,5-difluorophenyl)-1,2,4-oxadiazol-5-yl]-1H-pyrazol-5-yl}pyridine]",6.40
12,"OC1CCN(Cc2ccc(-c3noc(-c4cnn(C5CCCCC5)c4-c4ccncc4)n3)cc2)C1 (stereo not shown) [Example 45, 1-{4-[5-(1-cyclohexyl-5-pyridin-4-yl-1H-pyrazol-4-yl)-1,2,4-oxadiazol-3-yl]benzyl}pyrrolidin-3-ol]",8.00
13,"Cc1ccccc1-c1c(-c2nc(-c3cc(F)ccc3F)no2)cnn1C1CCCCC1 [Example 48, 5-[1-cyclohexyl-5-(2-methylphenyl)-1H-pyrazol-4-yl]-3-(2,5-difluorophenyl)-1,2,4-oxadiazole]",7.33
14,"c1ccc(-c2nc(-c3cnn(C4CCCCC4)c3-c3ccccc3)no2)cc1 [Example 51, 3-(1-cyclohexyl-5-phenyl-1H-pyrazol-4-yl)-5-phenyl-1,2,4-oxadiazole]",6.51
15,"OCCNCc1ccc(-c2noc(-c3cnn(C4CCCCC4)c3-c3ccncc3)n2)cc1 [Example 56, 2-({4-[5-(1-cyclohexyl-5-pyridin-4-yl-1H-pyrazol-4-yl)-1,2,4-oxadiazol-3-yl]benzyl}amino)ethanol]",7.96
